Results on 1 molecule are retold here after paper PMC5945515, “Measuring glucocorticoid receptor expression in vivo with PET” (Oncotarget, 2018).

Assay [1] concerns the target T1, mouse GR (Mus musculus, UniProt P06537).
T1 construct: endogenous in cells; host or cells: GL261
T1 sequence (P06537 1-792): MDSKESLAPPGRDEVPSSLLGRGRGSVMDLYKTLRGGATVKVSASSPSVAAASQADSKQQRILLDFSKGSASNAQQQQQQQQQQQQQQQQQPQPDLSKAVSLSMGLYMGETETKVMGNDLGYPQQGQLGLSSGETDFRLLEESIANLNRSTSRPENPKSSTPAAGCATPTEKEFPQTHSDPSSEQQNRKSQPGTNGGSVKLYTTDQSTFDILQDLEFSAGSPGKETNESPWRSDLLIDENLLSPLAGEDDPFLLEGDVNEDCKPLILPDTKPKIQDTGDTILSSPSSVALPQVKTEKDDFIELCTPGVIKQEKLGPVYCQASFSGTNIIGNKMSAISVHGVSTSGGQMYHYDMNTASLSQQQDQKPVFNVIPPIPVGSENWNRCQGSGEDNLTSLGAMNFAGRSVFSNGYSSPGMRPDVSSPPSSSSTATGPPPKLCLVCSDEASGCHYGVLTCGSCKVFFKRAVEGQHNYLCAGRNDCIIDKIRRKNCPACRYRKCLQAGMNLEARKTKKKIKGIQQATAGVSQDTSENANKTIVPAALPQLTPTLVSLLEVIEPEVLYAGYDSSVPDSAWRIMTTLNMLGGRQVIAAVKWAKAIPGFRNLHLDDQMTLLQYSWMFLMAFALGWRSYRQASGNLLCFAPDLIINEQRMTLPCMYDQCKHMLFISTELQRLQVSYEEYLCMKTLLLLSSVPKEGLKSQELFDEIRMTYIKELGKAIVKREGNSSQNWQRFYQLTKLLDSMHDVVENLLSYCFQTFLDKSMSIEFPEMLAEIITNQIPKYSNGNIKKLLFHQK
Nature of the assay: Competition binding assay on cells, mouse GR. The following applies: GL261 cells, displacing 3H-dexamethasone; read-out: KD msGR. Here is the method:
(§1) The KD for subfamily 3 group C nuclear hormone receptors was determined on cells by displacing ^3H-steroidal agonists for the respective receptor. […].
(§2) The cold ligands and ^3H-steroids were co-incubated on cells in PBS at room temperature for one hour. Following incubation, the cells were washed twice with ice cold PBS and the unbound activity was retained for analysis. The cells were lysed with 1 mL of 1 M NaOH and collected. Bound and unbound fractions were counted in a liquid scintillation counter and expressed as a percentage of the total activity added per equal relative number of cells. […]. The specific binding component was plotted against the log of the competing ligand and curve fit using a non-linear regression algorithm with PRISM software.

The target of assay [2] is T2, rat GR (Rattus norvegicus, UniProt P06536).
T2 construct: endogenous in cells; host or cells: 9L
T2 sequence (P06536 1-795): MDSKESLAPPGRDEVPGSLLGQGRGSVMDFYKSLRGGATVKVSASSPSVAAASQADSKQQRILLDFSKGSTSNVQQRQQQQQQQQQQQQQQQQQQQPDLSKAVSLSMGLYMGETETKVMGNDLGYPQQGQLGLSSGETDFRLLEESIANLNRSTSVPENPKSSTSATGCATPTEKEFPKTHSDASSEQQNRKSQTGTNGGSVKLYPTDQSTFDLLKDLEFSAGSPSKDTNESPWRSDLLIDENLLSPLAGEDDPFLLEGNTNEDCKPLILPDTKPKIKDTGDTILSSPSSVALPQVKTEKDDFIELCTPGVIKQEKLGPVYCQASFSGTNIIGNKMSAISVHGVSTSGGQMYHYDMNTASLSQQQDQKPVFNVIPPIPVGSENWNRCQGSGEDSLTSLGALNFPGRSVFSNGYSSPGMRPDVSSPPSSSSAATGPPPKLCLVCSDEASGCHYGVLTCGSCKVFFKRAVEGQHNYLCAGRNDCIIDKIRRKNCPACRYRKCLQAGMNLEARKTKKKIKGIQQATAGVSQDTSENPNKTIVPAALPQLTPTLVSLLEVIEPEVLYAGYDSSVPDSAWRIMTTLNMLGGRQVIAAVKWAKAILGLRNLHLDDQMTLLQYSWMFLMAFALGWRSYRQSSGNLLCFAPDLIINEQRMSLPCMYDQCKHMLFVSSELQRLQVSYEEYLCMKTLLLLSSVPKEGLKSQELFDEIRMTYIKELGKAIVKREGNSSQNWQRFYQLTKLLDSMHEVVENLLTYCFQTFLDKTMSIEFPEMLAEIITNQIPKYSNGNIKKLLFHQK
Nature of the assay: Competition binding assay on cells, rat GR. Conditions: 9L cells, displacing 3H-dexamethasone; read-out: KD rtGR. The protocol: as §1, §2

In the case of `C[C@]12C=CC(=O)C=C1CCC1C2[C@@H](O)C[C@@]2(C)C1CC[C@]2(O)C(=O)CNC(=O)c1ccc(F)cc1` (some centres unmarked) [GR02], the Kd in assay [1] was 6.71 nM; in assay [2] it was 6.18 nM.
